Test results from patent publication US20190185829A1, “Preparation of lipase with improved ester synthesis activity by using surfactants” (Jiangnan University, priority 2017, published 2019).

Tests used:
Assay type in all cases: biochemical
[1] = target: T1, Candida antarctica lipase CALB (Moesziomyces antarcticus, UniProt P41365); assay: Ester synthesis activity of surfactant-treated lyophilized lipase CALB by GC analysis; conditions: protein 0.12 mg·mL^−1
T1 construct: purchased Sigma-Aldrich Co., Ltd
Description: (§1) (2) Determination of Ester Synthesis Activity of the Lipase by GC Analysis
(§2) Substrate solution A: 48.5 mL of n-octanoic acid is dissolved in 250 mL of n-heptane in a volumetric flask.
(§3) Substrate solution B: 17.5 mL of absolute ethanol is dissolved in 250 mL of n-heptane in a volumetric flask.
(§4) Internal standard: 2-hexanol/n-heptane (35 g·L^−1).
(§5) Standard sample: 10 g of n-octanoate is dissolved in 1000 mL of n-heptane in a volumetric flask.
(§6) 1 mL substrate solution A and substrate solution B are added in a 5 mL Eppendorf tube respectively, then 20 mg lipase powder (or lyophilized powder) is added. The reaction is carried out at 40° C. and with shaking at 150 rpm for 30 min. Remove the lipase powder by centrifugation or membrane filtration. Then 0.1 mL of internal standard is added in 0.4 mL of filtrate or supernatant and mixed. Measure the content of n-octanoate in the mixture above by GC analysis.
(§7) The gas chromatograph (6820, Agilent Instruments) is equipped with a AC20 (PEG20000) capillary column and a FID detector. Nitrogen was used as the carrier gas. The oven temperature was programmed to start at 90° C. for 1 min and then be elevated to 200° C. for 5 min at 10° C.·min^−1. The injector and detector temperatures were set at 250° C.
(§8) Definition of enzyme activity: One unit of ester synthesis activity is defined as the amount of enzyme that esterifies 1 micromole of n-octanoate per min.
(§9) Specific activity: the activity of lipase per milligram of total protein in the lipase preparation.
(§10) Total recovery: the percentage of the activity after a treatment to that before the treatment
(§11) Add an equal volume of high-concentration surfactant solution into the enzyme solution. The final protein concentration was […] and the surfactant concentration was 10 mM. After mixed thoroughly, the mixture was lyophilized and kept in dry condition.
(§12) Commercial lipase CALB was purchased from Sigma-Aldrich Co., Ltd. CALB is a non-immobilized lipase. Dissolve the CALB powder in water and centrifuge to obtain the supernatant containing the CALB lipase that would be regulated to improve the ester synthesis activity by adjusting the final protein concentration to 0.12 mg·mL^−1 and adding surfactants to the final concentration of 10 mM.
(§13) Commercial lipase CALB was purchased from Sigma-Aldrich Co., Ltd. and is a non-immobilized lipase. Dissolve the CALB powder in water, centrifuge to obtain the supernatant and treat the supernatant with different concentrations of surfactant DDM (the final protein concentration was 0.12 mg·mL^−1).

[2] = target: T2, Rhizoupus oryzae lipase ROL (Rhizopus oryzae, UniProt P61872); assay: Ester synthesis activity of surfactant-treated lyophilized lipase ROL by GC analysis; conditions: surfactant 10 mM, protein 0.2 mg·mL^−1
T2 construct: purchased Sigma-Aldrich Co., Ltd
Description: as §1, §2, §3, §4, §5, §6, §7, §8, §9, §10, §11
as §12, with “lipase ROL” for “lipase CALB”, “Ltd. ROL” for “Ltd. CALB”, “the ROL” for “the CALB”, “improve its” for “improve the”, “to 0.2” for “to 0.12”
(§14) Commercial lipase ROL was purchased from Sigma-Aldrich Co., Ltd. and is a non-immobilized lipase. Dissolve the ROL powder in water, centrifuge to obtain the supernatant and treat the supernatant with different concentrations of surfactant LPC14 (the final protein concentration was 0.2 mg·mL^−1).

[3] = target: T1, Candida antarctica lipase CALB; assay: Hydrolytic activity of surfactant-treated lipase CALB using pNPP as substrate; conditions: protein 0.12 mg·mL^−1
Description: (§15) (1) Determination of Hydrolytic Activity of the Lipase Using p-Nitrophenyl Palmitate (pNPP) as Substrate
(§16) Hydrolysis of pNPP catalyzed by lipase generates p-nitrophenol and palmitic acid. p-nitrophenol appears yellow in the buffer at pH 8.0 with the maximum absorption peak at 410 nm. Determination of hydrolytic activity can be achieved by measuring the absorbance at 410 nm.
(§17) The substrate solution A: 50 mmol·L^−1 sodium phosphate buffer (pH 8.0) containing 1.16 g·L^−1 sodium deoxycholate and 0.56 g·L^−1 arabic gum. Substrate solution B: 0.015 g pNPP is dissolved in 5 mL isopropyl alcohol. Substrate solution A and substrate solution B are mixed then stored for use afterwards.
(§18) Termination solution: 40 g·L^−1 NaOH, 93.05 g·L^−1 EDTA sodium. Add 62 uL termination solution to the reaction mixture when stopping the reaction.
(§19) Add 0.1 mL appropriately diluted enzyme solution, which is substituted by inactivated enzyme solution as the control, to 2.4 mL substrate solution above, incubate the mixture at 40° C. for 2 min and measure the absorbance at 410 nm.
(§20) one hydrolytic activity unit is defined as the amount of enzyme that catalyzes the formation of 1 μmol of p-nitrophenol in 1 minute at 40° C.
(§21) enzyme activity (U·mL^−1)=(V×A410×10^6)/(ε×t×V′) Calculation equation: […]
(§22) Specific activity: the activity of lipase per milligram of total protein in the lipase preparation. […]
as §12, §13

[4] = target: T3, Pseudomonas cepacia lipase PCL (Burkholderia cepacia, UniProt P22088); assay: Hydrolytic activity of surfactant-treated lipase PCL using pNPP as substrate; conditions: protein 0.2 mg·mL^−1
T3 construct: purchased Sigma-Aldrich Co., Ltd
Description: as §15, §16, §17, §18, §19, §20, §21, §22
as §12, with “PCL” for “CALB”, “0.2” for “0.12”
(§23) Commercial lipase PCL was purchased from Sigma-Aldrich Co., Ltd. and is a non-immobilized lipase. Dissolve the PCL powder in water, centrifuge to obtain the supernatant and treat the supernatant with different concentrations of surfactant DDM (the final protein concentration was 0.2 mg·mL^−1).

[5] = system: Rhizopus chinensis lipase r27RCL; assay: Hydrolytic activity of surfactant-treated lipase r27RCL using pNPP as substrate; conditions: surfactant 10 mM, protein 0.2 mg·mL^−1
Description: as §15, §16, §17, §18, §19, §20, §21, §22
(§24) Commercial lipase r27RCL was purchased from Jiangsu Yiming Biological Technology Co., Ltd, which has high hydrolytic activity and low ester synthesis activity. Dissolve the r27RCL powder in water and centrifuge to obtain the supernatant containing the r27RCL lipase to adjust the ester synthesis activity (the final protein concentration was 0.2 mg·mL^−1 and the final concentration of surfactant was 10 mM, which is between 0.1×CMC^˜200×CMC of the different surfactants in Table 1).
(§25) Commercial lipase r27RCL was purchased from Jiangsu Yiming Biological Technology Co., Ltd. r27RCL is a lipase with high hydrolytic activity but low ester synthesis activity. Dissolve the r27RCL powder in water, centrifuge to obtain the supernatant and treat the supernatant with different concentrations of surfactant LPC14 (the final protein concentration was 0.2 mg·mL^−1).

[6] = target: T2, Rhizoupus oryzae lipase ROL; assay: Hydrolytic activity of surfactant-treated lipase ROL using pNPP as substrate; conditions: surfactant 10 mM, protein 0.2 mg·mL^−1
Description: as §15, §16, §17, §18, §19, §20, §21, §22
as §12, with “lipase ROL” for “lipase CALB”, “Ltd. ROL” for “Ltd. CALB”, “the ROL” for “the CALB”, “improve its” for “improve the”, “to 0.2” for “to 0.12”
as §14

[7] = target: T3, Pseudomonas cepacia lipase PCL; assay: Ester synthesis activity of surfactant-treated lyophilized lipase PCL by GC analysis; conditions: protein 0.2 mg·mL^−1
Description: as §1, §2, §3, §4, §5, §6, §7, §8, §9, §10, §11
as §12, with “PCL” for “CALB”, “0.2” for “0.12”
as §23

[8] = system: Rhizopus chinensis lipase r27RCL; assay: Ester synthesis activity of surfactant-treated lyophilized lipase r27RCL by GC analysis; conditions: surfactant 10 mM, protein 0.2 mg·mL^−1
Description: as §1, §2, §3, §4, §5, §6, §7, §8, §9, §10, §11, §24, §25

[9] = surfactant concentration 0.1 x CMC
[10] = surfactant concentration 1 x CMC
[11] = surfactant concentration 10 x CMC
[12] = surfactant concentration 100 x CMC

T2 sequence (P61872 96-392): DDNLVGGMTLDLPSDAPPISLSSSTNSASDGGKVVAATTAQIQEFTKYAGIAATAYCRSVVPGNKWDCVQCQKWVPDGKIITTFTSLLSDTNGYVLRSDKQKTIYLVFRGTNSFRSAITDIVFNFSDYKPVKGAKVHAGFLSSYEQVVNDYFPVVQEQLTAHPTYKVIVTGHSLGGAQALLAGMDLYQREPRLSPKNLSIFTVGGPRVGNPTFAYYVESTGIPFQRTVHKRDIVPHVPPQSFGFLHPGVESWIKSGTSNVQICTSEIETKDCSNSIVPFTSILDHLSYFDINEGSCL
T1 sequence (P41365 26-342): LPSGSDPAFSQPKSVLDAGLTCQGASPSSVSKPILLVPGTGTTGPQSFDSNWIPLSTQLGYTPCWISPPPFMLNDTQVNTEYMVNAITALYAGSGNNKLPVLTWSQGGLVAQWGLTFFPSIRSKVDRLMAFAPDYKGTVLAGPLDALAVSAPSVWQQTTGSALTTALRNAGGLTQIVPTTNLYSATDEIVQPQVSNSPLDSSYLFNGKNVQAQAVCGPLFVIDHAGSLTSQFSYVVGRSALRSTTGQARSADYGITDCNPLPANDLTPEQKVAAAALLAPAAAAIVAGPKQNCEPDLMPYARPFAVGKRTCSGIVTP
T3 sequence (P22088 45-364): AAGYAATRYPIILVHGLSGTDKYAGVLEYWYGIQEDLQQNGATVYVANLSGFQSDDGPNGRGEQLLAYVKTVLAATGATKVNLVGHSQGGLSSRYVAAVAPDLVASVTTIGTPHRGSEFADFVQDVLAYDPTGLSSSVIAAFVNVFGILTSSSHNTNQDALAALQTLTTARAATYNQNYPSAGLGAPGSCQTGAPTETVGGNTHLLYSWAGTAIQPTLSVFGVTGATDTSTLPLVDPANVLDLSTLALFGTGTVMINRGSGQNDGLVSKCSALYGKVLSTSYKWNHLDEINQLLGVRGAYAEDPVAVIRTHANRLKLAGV

SMILES: CCCCCCCCCCCCCCCC[N+](C)(C)C.[Br-] [CTAB, hexadecyl trimethyl ammonium bromide]
- Ester synthesis activity, Specific activity ([1]; surfactant 10 mM): 36.6 U · mg^−1
- Ester synthesis activity, Total recovery ([1]; surfactant 10 mM): 300%
- Ester synthesis activity, Specific activity [2]: 0 U · mg^−1
- Ester synthesis activity, Total recovery [2]: 0%
- Hydrolytic activity, Specific activity ([3]; surfactant 10 mM): 0 U · mg^−1
- Hydrolytic activity, Total recovery ([3]; surfactant 10 mM): 0%
- Hydrolytic activity, Specific activity ([4]; surfactant 10 mM): 75.5 U · mg^−1
- Hydrolytic activity, Total recovery ([4]; surfactant 10 mM): 29%
- Hydrolytic activity, Specific activity [5]: 0 U · mg^−1
- Hydrolytic activity, Total recovery [5]: 0%
- Hydrolytic activity, Specific activity [6]: 0 U · mg^−1
- Hydrolytic activity, Total recovery [6]: 0%
- Ester synthesis activity, Specific activity ([7]; surfactant 10 mM): 0 U · mg^−1
- Ester synthesis activity, Total recovery ([7]; surfactant 10 mM): 0%
- Ester synthesis activity, Specific activity [8]: 0 U · mg^−1
- Ester synthesis activity, Total recovery [8]: 0%

SMILES: CCCCCCCCCCCCO[C@@H]1O[C@H](CO)[C@@H](O[C@H]2O[C@H](CO)[C@@H](O)[C@H](O)[C@H]2O)[C@H](O)[C@H]1O [DDM, n-dodecyl-ß-D-maltopyranoside]
- Ester synthesis activity, Specific activity ([1]; surfactant 10 mM): 101.9 U · mg^−1
- Ester synthesis activity, Specific activity [1, 9]: 4.0 U · mg^−1
- Ester synthesis activity, Total recovery [1, 9]: 12%
- Ester synthesis activity, Specific activity [1, 10]: 14.3 U · mg^−1
- Ester synthesis activity, Total recovery [1, 10]: 50%
- Ester synthesis activity, Specific activity [1, 11]: 37.3 U · mg^−1
- Ester synthesis activity, Total recovery [1, 11]: 73%
- Ester synthesis activity, Specific activity [1, 12]: 32.6 U · mg^−1
- Ester synthesis activity, Total recovery [1, 12]: 189%
- Ester synthesis activity, Specific activity [2]: 2.8 U · mg^−1
- Hydrolytic activity, Specific activity ([3]; surfactant 10 mM): 0 U · mg^−1
- Hydrolytic activity, Total recovery ([3]; surfactant 10 mM): 0%
- Hydrolytic activity, Specific activity [3, 9]: 2.1 U · mg^−1
- Hydrolytic activity, Total recovery [3, 9]: 45%
- Hydrolytic activity, Specific activity [3, 10]: 3.0 U · mg^−1
- Hydrolytic activity, Total recovery [3, 10]: 75%
- Hydrolytic activity, Specific activity [3, 11]: 0.7 U · mg^−1
- Hydrolytic activity, Total recovery [3, 11]: 10%
- Hydrolytic activity, Specific activity [3, 12]: 0 U · mg^−1
- Hydrolytic activity, Total recovery [3, 12]: 0%
- Hydrolytic activity, Specific activity ([4]; surfactant 10 mM): 327.7 U · mg^−1
- Hydrolytic activity, Total recovery ([4]; surfactant 10 mM): 111%
- Hydrolytic activity, Specific activity [4, 9]: 499.5 U · mg^−1
- Hydrolytic activity, Total recovery [4, 9]: 106%
- Hydrolytic activity, Specific activity [4, 10]: 434.7 U · mg^−1
- Hydrolytic activity, Total recovery [4, 10]: 99%
- Hydrolytic activity, Specific activity [4, 11]: 756.7 U · mg^−1
- Hydrolytic activity, Total recovery [4, 11]: 114%
- Hydrolytic activity, Specific activity [4, 12]: 773.5 U · mg^−1
- Hydrolytic activity, Total recovery [4, 12]: 246%
- Hydrolytic activity, Specific activity [5]: 135.0 U · mg^−1
- Hydrolytic activity, Total recovery [5]: 94%
- Hydrolytic activity, Specific activity [6]: 42.7 U · mg^−1
- Hydrolytic activity, Total recovery [6]: 116%
- Ester synthesis activity, Specific activity ([7]; surfactant 10 mM): 55.6 U · mg^−1
- Ester synthesis activity, Specific activity [7, 9]: 3.2 U · mg^−1
- Ester synthesis activity, Total recovery [7, 9]: 58%
- Ester synthesis activity, Specific activity [7, 10]: 2.9 U · mg^−1
- Ester synthesis activity, Total recovery [7, 10]: 57%
- Ester synthesis activity, Specific activity [7, 11]: 20.0 U · mg^−1
- Ester synthesis activity, Total recovery [7, 11]: 260%
- Ester synthesis activity, Specific activity [7, 12]: 101.6 U · mg^−1
- Ester synthesis activity, Specific activity [8]: 31.4 U · mg^−1
